Laboratory results: patent US9085561B2, “Cyclic urea- or lactam-substituted quinoxaline-type piperidines as ORL-1 modulators” (priority 2012, dated 2015)
Marks after values point to notes of the source that are not given here.

Experiments:
[1] = molecular target: human opioid receptor-like (ORL-1) (Homo sapiens, UniProt P41146); test: In vitro ORL-1 receptor [35S]GTPγS functional assay; type: biochemical
[2] = molecular target: human CYP2D6 (Homo sapiens, UniProt P10635); test: Cytochrome P450 2D6 inhibition (dextromethorphan O-demethylation, pooled human hepatic microsome)
[3] = system: mechanical hyperalgesia in rats subjected to partial sciatic nerve ligation; test: Seltzer model (partial sciatic nerve ligation) of neuropathic pain, paw pressure assay (PWT); type: in vivo, rat

human CYP2D6, sequence (P10635 whole entry): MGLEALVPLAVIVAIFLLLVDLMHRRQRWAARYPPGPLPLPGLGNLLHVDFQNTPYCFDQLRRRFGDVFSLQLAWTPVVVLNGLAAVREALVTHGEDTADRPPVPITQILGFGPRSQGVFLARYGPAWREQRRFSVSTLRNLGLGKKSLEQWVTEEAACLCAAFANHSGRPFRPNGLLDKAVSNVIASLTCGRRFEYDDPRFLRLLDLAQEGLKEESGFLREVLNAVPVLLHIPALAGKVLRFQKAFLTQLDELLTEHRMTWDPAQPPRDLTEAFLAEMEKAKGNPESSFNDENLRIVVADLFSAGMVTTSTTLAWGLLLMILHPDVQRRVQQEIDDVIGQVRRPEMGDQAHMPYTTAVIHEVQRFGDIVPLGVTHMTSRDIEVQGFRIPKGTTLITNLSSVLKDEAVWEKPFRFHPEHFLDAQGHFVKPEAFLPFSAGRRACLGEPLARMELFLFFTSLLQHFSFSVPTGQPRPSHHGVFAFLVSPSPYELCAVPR
human opioid receptor-like (ORL-1), sequence (P41146 whole entry): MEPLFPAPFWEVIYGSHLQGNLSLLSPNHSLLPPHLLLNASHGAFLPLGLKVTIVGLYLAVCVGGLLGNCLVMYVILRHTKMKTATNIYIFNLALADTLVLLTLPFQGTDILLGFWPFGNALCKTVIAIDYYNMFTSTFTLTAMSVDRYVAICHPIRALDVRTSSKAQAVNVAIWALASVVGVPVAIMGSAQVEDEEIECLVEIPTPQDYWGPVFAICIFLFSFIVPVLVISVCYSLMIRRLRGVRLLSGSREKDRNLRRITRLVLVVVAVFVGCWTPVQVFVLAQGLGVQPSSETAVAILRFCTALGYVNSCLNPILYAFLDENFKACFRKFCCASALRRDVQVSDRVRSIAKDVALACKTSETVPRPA

O=c1ccn(-c2nc3ccccc3n([C@H]3C[C@H]4CCC[C@@H](C3)N4[C@@H]3C[C@@H]4CCCC[C@@H](C4)C3)c2=O)c(=O)[nH]1 [Compound O13b, 1-(4-((1R,3R,5S)-9-((1R,6S,8s)-bicyclo[4.3.1]decan-8-yl)-9-azabicyclo[3.3.1]nonan-3-yl)-3-oxo-3,4-dihydroquinoxalin-2-yl)pyrimidine-2,4(1H,3H)-dione]
EC50 [1]: > 20 µM
IC50 [2]: > 20 µM

O=c1[nH]cnn1-c1nc2ccccc2n([C@H]2C[C@H]3CCC[C@@H](C2)N3[C@H]2C[C@@H]3CCC[C@@H](C3)C2)c1=O [Compound B23a, 1-((1R,3r,3′R,5S,5′S)-[3,9′-bi(9′-azabicyclo[3.3.1]nonan)]-3′-yl)-3-(5-oxo-4,5-dihydro-1H-1,2,4-triazol-1-yl)quinoxalin-2(1H)-one]
EC50 [1]: > 20 µM
IC50 [2]: 17.8 µM

O=c1[nH]cc(F)cc1-c1nc2ccccc2n([C@H]2C[C@H]3CCC[C@@H](C2)N3[C@H]2C[C@@H]3CCC[C@@H](C3)C2)c1=O [R16a(i), 1-((1R,1′R,3r,3′R,5S,5′S)-[3,9′-bi(9′-azabicyclo[3.3.1]nonan)]-3′-yl)-3-(5-fluoro-2-oxo-1,2-dihydropyridin-3-yl)quinoxalin-2(1H)-one]
EC50 [1]: 1.61 ± 0.441 µM
IC50 [2]: > 20 µM

Nc1ccn(-c2nc3ccccc3n([C@H]3C[C@H]4CCC[C@@H](C3)N4[C@@H]3C[C@@H]4CCCC[C@@H](C4)C3)c2=O)c(=O)n1 [Compound U068, 3-(4-amino-2-oxopyrimidin-1(2H)-yl)-1-((1R,3R,5S)-9-((1R,6S,8s)-bicyclo[4.3.1]decan-8-yl)-9-azabicyclo[3.3.1]nonan-3-yl)quinoxalin-2(1H)-one]
EC50 [1]: > 20 µM
IC50 [2]: > 20 µM

O=C(O)Cn1cccc(-c2nc3ccccc3n([C@H]3C[C@H]4CC[C@@H](C3)N4[C@H]3C[C@@H]4CCC[C@@H](C4)C3)c2=O)c1=O [Q13a(iii), 2-(3-(4-((1R,3R,5S)-8-((1R,3r,5S)-bicyclo[3.3.1]nonan-3-yl)-8-azabicyclo[3.2.1]octan-3-yl)-3-oxo-3,4-dihydroquinoxalin-2-yl)-2-oxopyridin-1(2H)-yl)acetic acid]
EC50 [1]: 0.255 ± 0.042 µM
IC50 [2]: > 20 µM

O=c1cnn(-c2nc3ccccc3n([C@H]3C[C@H]4CCC[C@@H](C3)N4C3CCCCCCC3)c2=O)c(=O)[nH]1 [Compound H9c, 2-(4-((1R,3r,5S)-9-cyclooctyl-9-azabicyclo[3.3.1]nonan-3-yl)-3-oxo-3,4-dihydroquinoxalin-2-yl)-1,2,4-triazine-3,5(2H,4H)-dione]
EC50 [1]: 0.376 ± 0.016 µM
IC50 [2]: > 20 µM

Cc1nn(-c2nc3ccccc3n([C@H]3C[C@H]4CCC[C@@H](C3)N4[C@H]3C[C@@H]4CCC[C@@H](C4)C3)c2=O)c(=O)[nH]c1=O [Compound B10a, 2-(4-((1R,1′R,3r,3′R,5S,5′S)-[3,9′-bi(9′-azabicyclo[3.3.1]nonan)]-3′-yl)-3-oxo-3,4-dihydroquinoxalin-2-yl)-6-methyl-1,2,4-triazine-3,5(2H,4H)-dione]
EC50 [1]: > 20 µM
IC50 [2]: > 20 µM

O=C1CNC(=O)N1c1nc2ccccc2n([C@H]2C[C@H]3CCC[C@@H](C2)N3[C@H]2C[C@@H]3CCC[C@@H](C3)C2)c1=O [Compound B20a, 3-(4-((1R,1′R,3r,3′R,5S,5′S)-[3,9′-bi(9′-azabicyclo[3.3.1]nonan)]-3′-yl)-3-oxo-3,4-dihydroquinoxalin-2-yl)imidazolidine-2,4-dione]
EC50 [1]: > 20 µM
IC50 [2]: > 20 µM

O=C(O)Cn1cccc(-c2nc3ccccc3n([C@H]3C[C@H]4CCC[C@@H](C3)N4C3CCCCCCCCC3)c2=O)c1=O [BB13c(iii), 2-(3-(4-((1R,3r,5S)-9-cyclodecyl-9-azabicyclo[3.3.1]nonan-3-yl)-3-oxo-3,4-dihydroquinoxalin-2-yl)-2-oxopyridin-1(2H)-yl)acetic acid]
EC50 [1]: 0.101 ± 0.02 µM
IC50 [2]: > 20 µM

O=c1cnn(-c2nc3ccccc3n([C@H]3C[C@H]4CCC[C@@H](C3)N4[C@H]3C[C@@H]4CCC[C@@H](C4)C3)c2=O)c(=O)[nH]1 [Compound B9a]
reversal compared with the pregabalin control ([3]; 1, 3, or 10 mg/kg, all measured time-points on the first day of administration): more effective reversal than the pregabalin control
effects against mechanical hyperalgesia ([3]; once daily administration (3 or 10 mg/kg) for seven days, rats with partial sciatic nerve ligation): statistically significant effects
% Reversal [mean] ([3]; rat Seltzer model, oral 1 mg/kg, 1 h after administration (day 1)): 27.0* %
% Reversal [mean] ([3]; rat Seltzer model, oral 1 mg/kg, 3 h after administration (day 1), 1 mg/kg): 37.0%
% Reversal [mean] ([3]; rat Seltzer model, oral 1 mg/kg, 5 h after administration (day 1)): 27.0* %
% Reversal [mean] ([3]; rat Seltzer model, oral 1 mg/kg, pre-administration): 0%
% Reversal [mean] ([3]; rat Seltzer model, oral 3 mg/kg once daily, 1 h after administration (day 4)): 40.8** %
% Reversal [mean] ([3]; rat Seltzer model, oral 3 mg/kg once daily, 1 h after administration (day 7)): 47.7** %
% Reversal [mean] ([3]; rat Seltzer model, oral 3 mg/kg once daily, 3 h after administration (day 4), 3 mg/kg): 46.2%
% Reversal [mean] ([3]; rat Seltzer model, oral 3 mg/kg once daily, 3 h after administration (day 7), 3 mg/kg): 55.2%
% Reversal [mean] ([3]; rat Seltzer model, oral 3 mg/kg once daily, 5 h after administration (day 4)): 36.9** %
% Reversal [mean] ([3]; rat Seltzer model, oral 3 mg/kg once daily, 5 h after administration (day 7)): 42.2** %
% Reversal [mean] ([3]; rat Seltzer model, oral 3 mg/kg, 1 h after administration (day 1)): 33.1** %
% Reversal [mean] ([3]; rat Seltzer model, oral 3 mg/kg, 3 h after administration (day 1), 3 mg/kg): 46.2%
% Reversal [mean] ([3]; rat Seltzer model, oral 3 mg/kg, 5 h after administration (day 1)): 34.6** %
% Reversal [mean] ([3]; rat Seltzer model, oral 3 mg/kg, pre-administration): 0%
% Reversal [mean] ([3]; rat Seltzer model, oral 10 mg/kg once daily, 1 h after administration (day 4)): 53.8** %
% Reversal [mean] ([3]; rat Seltzer model, oral 10 mg/kg once daily, 1 h after administration (day 7)): 50.0** %
% Reversal [mean] ([3]; rat Seltzer model, oral 10 mg/kg once daily, 3 h after administration (day 4), 10 mg/kg): 64.2%
% Reversal [mean] ([3]; rat Seltzer model, oral 10 mg/kg once daily, 3 h after administration (day 7), 10 mg/kg): 63.5%
% Reversal [mean] ([3]; rat Seltzer model, oral 10 mg/kg once daily, 5 h after administration (day 4)): 47.7** %
% Reversal [mean] ([3]; rat Seltzer model, oral 10 mg/kg once daily, 5 h after administration (day 7)): 42.2** %
% Reversal [mean] ([3]; rat Seltzer model, oral 10 mg/kg, 1 h after administration (day 1)): 49.2** %
% Reversal [mean] ([3]; rat Seltzer model, oral 10 mg/kg, 3 h after administration (day 1), 10 mg/kg): 61.5%
% Reversal [mean] ([3]; rat Seltzer model, oral 10 mg/kg, 5 h after administration (day 1)): 46.9** %
% Reversal [mean] ([3]; rat Seltzer model, oral 10 mg/kg, pre-administration): 0%
tolerance development with repeated administration ([3]; repeated administration for 7 days, rat Seltzer model): lack of tolerance development
IC50 [2]: > 20 µM

O=c1ccn(-c2nc3ccccc3n([C@H]3C[C@H]4CCC[C@@H](C3)N4[C@H]3C[C@@H]4CCC[C@@H](C4)C3)c2=O)c(=O)[nH]1 [Compound B13a, 1-(4-((1R,1′R,3r,3′R,5S,5′S)-[3,9′-bi(9′-azabicyclo[3.3.1]nonan)]-3′-yl)-3-oxo-3,4-dihydroquinoxalin-2-yl)pyrimidine-2,4(1H,3H)-dione]
EC50 [1]: > 20 µM
IC50 [2]: > 20 µM

O=c1cnn(-c2nc3ccccc3n([C@H]3C[C@H]4CCC[C@@H](C3)N4[C@@H]3C[C@@H]4CCCC[C@@H](C4)C3)c2=O)c(=O)[nH]1 [Compound O9b, 2-(4-((1R,3R,5S)-9-((1R,6S,8s)-bicyclo[4.3.1]decan-8-yl)-9-azabicyclo[3.3.1]nonan-3-yl)-3-oxo-3,4-dihydroquinoxalin-2-yl)-1,2,4-triazine-3,5(2H,4H)-dione]
EC50 [1]: > 20 µM
IC50 [2]: > 20 µM

Cc1nn(-c2nc3ccccc3n([C@H]3C[C@H]4CCC[C@@H](C3)N4[C@H]3C[C@@H]4CCC[C@@H](C4)C3)c2=O)c(=S)[nH]c1=O [Compound U001, 1-((1R,1′R,3r,3′R,5S,5′S)-[3,9′-bi(9′-azabicyclo[3.3.1]nonan)]-3′-yl)-3-(6-methyl-5-oxo-3-thioxo-4,5-dihydro-1,2,4-triazin-2(3H)-yl)quinoxalin-2(1H)-one]
EC50 [1]: > 20 µM
IC50 [2]: > 20 µM

O=C1CN(c2nc3ccccc3n([C@H]3C[C@H]4CCC[C@@H](C3)N4[C@H]3C[C@@H]4CCC[C@@H](C4)C3)c2=O)C(=O)N1 [Compound B17a, 1-(4-((1R,1′R,3r,3′R,5S,5′S)-[3,9′-bi(9′-azabicyclo[3.3.1]nonan)]-3′-yl)-3-oxo-3,4-dihydroquinoxalin-2-yl)imidazolidine-2,4-dione]
EC50 [1]: > 20 µM
IC50 [2]: > 20 µM

CC1(C)C(=O)NC(=O)N1c1nc2ccccc2n([C@H]2C[C@H]3CCC[C@@H](C2)N3[C@@H]2C[C@@H]3CCCC[C@@H](C3)C2)c1=O [Compound O19a, 1-(4-((1R,3R,5S)-9-((1R,6S,8s)-bicyclo[4.3.1]decan-8-yl)-9-azabicyclo[3.3.1]nonan-3-yl)-3-oxo-3,4-dihydroquinoxalin-2-yl)-5,5-dimethylimidazolidine-2,4-dione]
EC50 [1]: > 20 µM
IC50 [2]: > 20 µM

Nc1ccn(-c2nc3ccccc3n([C@H]3C[C@H]4CCC[C@@H](C3)N4[C@H]3C[C@@H]4CCC[C@@H](C4)C3)c2=O)c(=O)n1 [B5a(i), 1-((1R,1′R,3r,3′R,5S,5′S)-[3,9′-bi(9′-azabicyclo[3.3.1]nonan)]-3′-yl)-3-(4-amino-2-oxopyrimidin-1(2H)-yl)quinoxalin-2(1H)-one]
EC50 [1]: > 20 µM
IC50 [2]: > 20 µM

CC1(C)C(=O)NC(=O)N1c1nc2ccccc2n([C@H]2C[C@H]3CCC[C@@H](C2)N3[C@H]2C[C@@H]3CCC[C@@H](C3)C2)c1=O [Compound B19a, 1-(4-((1R,1′R,3r,3′R,5S,5′S)-[3,9′-bi(9′-azabicyclo[3.3.1]nonan)]-3′-yl)-3-oxo-3,4-dihydroquinoxalin-2-yl)-5,5-dimethylimidazolidine-2,4-dione]
EC50 [1]: > 20 µM
IC50 [2]: > 20 µM

O=c1cnn(-c2nc3ccccc3n([C@H]3C[C@H]4CC[C@@H](C3)N4[C@H]3C[C@@H]4CCC[C@@H](C4)C3)c2=O)c(=O)[nH]1 [Compound A9a, 2-(4-((1R,3R,5S)-8-((1R,3r,5S)-bicyclo[3.3.1]nonan-3-yl)-8-azabicyclo[3.2.1]octan-3-yl)-3-oxo-3,4-dihydroquinoxalin-2-yl)-1,2,4-triazine-3,5(2H,4H)-dione]
EC50 [1]: 0.378 ± 0.055 µM
IC50 [2]: > 20 µM
